# US4742062A, “Benzylpiperazine compound and pharmaceutical composition as hypolipidemic agent” (Kanebo, Ltd., priority 1985, dated 1988)
# “Also recorded” adds a separate entry of the source.
# Tests used:
# [1] = system: mice fed with normal feed (serum cholesterol); assay: Blood cholesterol lowering activity in mice fed with normal feed (Experiment 2); type: in vivo, ddY male mice; conditions: for Serum cholesterol level, mean ± S.E. / Percentage change of serum cholesterol: 7 days; for Percentage change of serum cholesterol: vs untreated group
# From the text: (2) Test method: It was done by a method similar to that of H. B. Right et al. (cf. H. B. Right et al., J. Med. Chem., Vol. 7, 113-115, 1964). ddY male mice (weighing 21-23 g, one group: 10 mice) were fed with a mixture of the test compound with powdery feed CE-2 (manufactured by CLEA JAPAN INC.) for 7 days. When the mice fed with the feed mixed with the test compound (test compound-administering group) and the mice fed with the feed mixed with no test compound (no test compound-administering group) were compared as to the feed uptake amount and body weight, there was observed no difference between two groups. After feeding for 7 days, under light anesthesia with ether, the femoral artery and vein were cut and blood was collected therefrom. The blood was centrifuged at 3,000 r.p.m. for 10 minutes to collect serum. The serum cholesterol was measured in the same manner as described in Experiment 1. From the data thus obtained, a mean value (X) of the serum cholesterol level in the no test compound-administering group and a mean value (Y) of the serum cholesterol level in the test compound-administering group were calculated, and the significant difference between them was tested (t-test). From the resulting data, the percentage change of serum cholesterol in the test compound-administering group was calculated by the following equation. [formula]
# [2] = Test of acute toxicity (LD50) in mice (Experiment 6); type: in vivo; conditions: mouse, in vivo, po, orally, 7 days observation, Weil method
# From the text: (§1) ddY male mice (weighing 20-25 g, one group: 5 mice) were orally administered with a suspension of the test compound in 3 w/v % aqueous gum arabic solution.
# mice = assay: as above; type: in vivo; conditions: orally, result in words
# From the text: as §1
# rats (liver) = assay: Test of hepatic toxicity in rats, weight of liver (Experiment 4); type: in vivo, Wistar male rats; conditions: for Weight of liver, mean ± S.E. / Percentage change of weight of liver: orally, once a day for 7 days; for Percentage change of weight of liver: vs untreated group
# Experimental: Wistar male rats (weighing 100-130 g, one group: […]) were orally administered with a suspension of the test compound in 3 w/v % aqueous gum arabic solution once a day for 7 days. 24 hours after the final administration of the test compound, under light anesthesia with ether, the liver was taken out and the weight thereof was measured.
# (§2) From the data thus obtained, a mean value (X) of the weight of liver in the no test compound-administering group and a mean value (Y) of the weight of liver in the test compound-administering group were calculated, and the significant difference between them was tested (t-test). From the resulting data, the percentage change of weight of liver in the test compound-administering group was calculated by the following equation. [formula]
# [3] = system: rats fed with normal feed (serum cholesterol); assay: Blood cholesterol lowering activity in rats fed with normal feed (Experiment 1); type: in vivo, Wistar male rats; conditions: for Serum cholesterol level, mean ± S.E. / Percentage change of serum cholesterol: once a day for 7 days; for Percentage change of serum cholesterol: vs untreated group
# Experimental: It was done by a method similar to that of A. V. Ginocchio et al. (cf. A. V. Ginocchio et al., Arzneim.Forsch./Drug Res., Vol. 30, 2032-2034, 1980).
# Wistar male rats (weighing 100-130 g, one group: 6 rats) were administered with a suspension of the test compound in 3 w/v % aqueous gum arabic solution once a day for 7 days. 24 hours after the final administration of the test compound, under light anesthesia with ether, the femoral artery and vein were cut and blood was collected therefrom. The blood was centrifuged at 3,000 r.p.m. for 10 minutes to collect serum. The serum cholesterol was measured by an enzymatic method using an agent for measuring total cholesterol (Determiner® TC "5", manufactured by Kyowa Medex Co., Ltd.) (cf. Charles C. Allain et al., Clin. Chem., Vol. 20, 470-475, 1974).
# From the data thus obtained, a mean value (X) of the serum cholesterol level in the group to which no test compound was administered and a mean value (Y) of the serum cholesterol level in the group to which the test compound was administered were calculated, and the significant difference between them was tested (t-test). From the resulting data, the percentage change of serum cholesterol in the test compound-administering group was calculated by the following equation. [formula]
# mice (liver) = assay: Test of hepatic toxicity in mice, weight of liver (Experiment 5); type: in vivo, ddY male mice; conditions: for Weight of liver, mean ± S.E. / Percentage change of weight of liver: 7 days; for Percentage change of weight of liver: vs untreated group
# From the text: ddY male mice (weighing 21-23 g, one group: 10 mice) were fed with a mixture of the test compound with powdery feed CE-2 (manufactured by CLEA JAPAN INC.) for 7 days. When the mice fed with the feed mixed with the test compound (test compound-administering group) and the mice fed with the feed mixed with no test compound (no test compound-administering group) were compared as to the feed uptake amount and body weight, there was observed no difference between two groups. After feeding for 7 days, under light anesthesia with ether, the liver was taken out, and the weight thereof was measured.
# as §2
# [4] = system: hypercholesterolemic mice (plasma cholesterol); assay: Blood cholesterol lowering activity in hypercholesterolemic mice (Experiment 3); type: in vivo, ddY male mice; conditions: for Plasma cholesterol level, mean ± S.E. / Percentage change of plasma cholesterol: orally, three times; for Percentage change of plasma cholesterol: vs untreated group
# From the text: (2) Test method: It was done by a method similar to that described in H. Ozawa, Screening of Pharmaceutical Activities for Development of New Drugs - Recent Movement and Practice, Vol. 1, 84-86, 1984 issued by […] Shoin (Tokyo). ddY male mice (weighing 10 - 12 g, one group: 10 mice) were fed with hypercholesterol feed [prepared by mixing CE-2 Feed (manufactured by CLEA JAPAN INC.) with cholesterol 1 w/w %, cholic acid 0.5 w/w % and sucrose 10 w/w %]. After 7 days from the starting of feeding with the hypercholesterol feed, and thereafter 6 hours and further 24 hours (totally three times), a suspension of the test compound in 3 w/v % aqueous gum arabic solution was orally administered. 3 hours after the final administration of the test compound, blood was collected from orbital vessel with hematocrit capillary (manufactured by TERUMO Corporation, treated with heparin). The blood was centrifuged at 10,000 r.p.m. for 2 minutes to collect blood plasma. The plasma cholesterol was measured in the same manner as described in Experiment 1. From the data thus obtained, a mean value (X) of the plasma cholesterol level in the no test compound-administering group and a mean value (Y) of the plasma cholesterol level in the test compound-administering group were calculated, and the significant difference between them was tested (t-test). From the resulting data, the percentage change of plasma cholesterol in the test compound-administering group was calculated by the following equation. [formula]
# cholesterol = conditions: clinical use; J. K. Reddy et al., Nature, Vol. 283, 397-398, 1980; cited from earlier work
# [5] = conc. of test compd. in feeds 0.0125%
# [6] = conc. of test compd. in feeds 0.025%, *** p < 0.001
# [7] = conc. of test compd. in feeds 0.025%
# [8] = conc. of test compd. in feeds 0.05%, *** p < 0.001
# [9] = conc. of test compd. in feeds 0.05%
# [10] = conc. of test compd. in feeds 0.1%, *** p < 0.001
# [11] = conc. of test compd. in feeds 0.1%
# [12] = normal feed, result in words, dihydrochloride
# [13] = result in words, dihydrochloride
# [14] = dose per once 50 mg/kg, ** p < 0.01
# [15] = dose per once 100 mg/kg, *** p < 0.001 (compound of this invention)
# [16] = conc. of test compd. in feeds 0.05%, ** p < 0.01 (reference compound)
# [17] = conc. of test compd. in feeds 0.1%, * p < 0.05 (reference compound)
compound,measurement,setting,value
"Cl.Cl.Clc1ccc(CN2CCN(CC=Cc3ccc(Cl)cc3Cl)CC2)cc1 [Compound of this invention, 1-(4-Chlorobenzyl)-4-(2,4-dichlorocinnamyl)-piperazine dihydrochloride]","Serum cholesterol level, mean ± S.E.","[1]; conc. of test compd. in feeds 0.0125%, * p < 0.05",130.7 ± 6.5 mg/dL
same,Percentage change of serum cholesterol,[1]; [5],-13.0%
same,"Serum cholesterol level, mean ± S.E.",[1]; [6],121.0 ± 3.7 mg/dL
same,Percentage change of serum cholesterol,[1]; [7],-19.4%
same,"Serum cholesterol level, mean ± S.E.",[1]; [8],62.9 ± 6.4 mg/dL
same,Percentage change of serum cholesterol,[1]; [9],-58.1%
same,"Serum cholesterol level, mean ± S.E.",[1]; [10],31.7 ± 3.7 mg/dL
same,Percentage change of serum cholesterol,[1]; [11],-78.9%
same,serum cholesterol lowering activity in comparison with probucol,[1]; [12],more potent serum cholesterol lowering activity in comparison with the known probucol; also recorded: higher activities than those of probucol in all experiments
same,LD50 at 168 h,[2],996 mg/kg
same,acute toxicity,mice,low acute toxicity
same,"Weight of liver, mean ± S.E.",rats (liver); dose per once 12.5 mg/kg,4.77 ± 0.07 g/100 g of body weight
same,Percentage change of weight of liver,rats (liver); dose per once 12.5 mg/kg,-2.9%
same,"Weight of liver, mean ± S.E.",rats (liver); dose per once 25 mg/kg,4.93 ± 0.10 g/100 g of body weight
same,Percentage change of weight of liver,rats (liver); dose per once 25 mg/kg,+0.4%
same,"Weight of liver, mean ± S.E.",rats (liver); dose per once 50 mg/kg,5.05 ± 0.08 g/100 g of body weight
same,Percentage change of weight of liver,rats (liver); dose per once 50 mg/kg,+2.9%
same,"Weight of liver, mean ± S.E.",rats (liver); dose per once 100 mg/kg,5.17 ± 0.07 g/100 g of body weight
same,Percentage change of weight of liver,rats (liver); dose per once 100 mg/kg,+5.3%
same,change in the weight of liver (hepatic toxicity),rats (liver); [13],did not give any significant change in the weight of liver; also recorded: did not give any effect on the weight of liver
same,"Serum cholesterol level, mean ± S.E.",[3]; dose per once 12.5 mg/kg,67.1 ± 2.1 mg/dL
same,Percentage change of serum cholesterol,[3]; dose per once 12.5 mg/kg,-5.4%
same,"Serum cholesterol level, mean ± S.E.","[3]; dose per once 25 mg/kg, *** p < 0.001",62.8 ± 0.8 mg/dL
same,Percentage change of serum cholesterol,[3]; dose per once 25 mg/kg,-11.4%
same,"Serum cholesterol level, mean ± S.E.",[3]; [14],64.4 ± 1.6 mg/dL
same,Percentage change of serum cholesterol,[3]; dose per once 50 mg/kg,-9.2%
same,"Serum cholesterol level, mean ± S.E.",[3]; [15],44.6 ± 2.1 mg/dL
same,Percentage change of serum cholesterol,[3]; dose per once 100 mg/kg,-37.1%
same,serum cholesterol lowering activity in comparison with probucol,[3]; [12],higher activities than those of probucol in all experiments; also recorded: more potent serum cholesterol lowering activity in comparison with the known probucol
same,"Weight of liver, mean ± S.E.",mice (liver); [5],6.80 ± 0.22 g/100 g of body weight
same,Percentage change of weight of liver,mice (liver); [5],+7.1%
same,"Weight of liver, mean ± S.E.",mice (liver); [7],6.63 ± 0.22 g/100 g of body weight
same,Percentage change of weight of liver,mice (liver); [7],+4.4%
same,"Weight of liver, mean ± S.E.",mice (liver); [16],6.86 ± 0.30 g/100 g of body weight
same,Percentage change of weight of liver,mice (liver); [9],+8.0%
same,"Weight of liver, mean ± S.E.",mice (liver); [17],6.43 ± 0.42 g/100 g of body weight
same,Percentage change of weight of liver,mice (liver); [11],+1.3%
same,change in the weight of liver (hepatic toxicity),mice (liver); [13],did not give any significant change in the weight of liver; also recorded: did not give any effect on the weight of liver
same,"Plasma cholesterol level, mean ± S.E.","[4]; dose per once 25 mg/kg, ** p < 0.01",313.1 ± 26.0 mg/dL
same,Percentage change of plasma cholesterol,[4]; dose per once 25 mg/kg,-29.8%
same,"Plasma cholesterol level, mean ± S.E.",[4]; [14],314.5 ± 16.3 mg/dL
same,Percentage change of plasma cholesterol,[4]; dose per once 50 mg/kg,-29.5%
same,"Plasma cholesterol level, mean ± S.E.",[4]; [15],256.0 ± 19.4 mg/dL
same,Percentage change of plasma cholesterol,[4]; dose per once 100 mg/kg,-42.6%
same,plasma cholesterol lowering activity in comparison with probucol,[4]; [13],more potent plasma cholesterol lowering activity in comparison with the known probucol; also recorded: higher activities than those of probucol in all experiments
"CC(C)(Sc1cc(C(C)(C)C)c(O)c(C(C)(C)C)c1)Sc1cc(C(C)(C)C)c(O)c(C(C)(C)C)c1 [Reference compound, reference compound]","Serum cholesterol level, mean ± S.E.",[1]; [6],121.7 ± 3.1 mg/dL
same,Percentage change of serum cholesterol,[1]; [7],-19.0%
same,"Serum cholesterol level, mean ± S.E.",[1]; [8],104.8 ± 4.4 mg/dL
same,Percentage change of serum cholesterol,[1]; [9],-30.2%
same,"Serum cholesterol level, mean ± S.E.",[1]; [10],84.4 ± 5.4 mg/dL
same,Percentage change of serum cholesterol,[1]; [11],-43.8%
same,LD50 at 168 h,[2],> 5000 mg/kg
same,"Weight of liver, mean ± S.E.",rats (liver); dose per once 100 mg/kg,4.68 ± 0.09 g/100 g of body weight
same,Percentage change of weight of liver,rats (liver); dose per once 100 mg/kg,-4.7%
same,"Serum cholesterol level, mean ± S.E.",[3]; [15],70.8 ± 2.0 mg/dL
same,Percentage change of serum cholesterol,[3]; dose per once 100 mg/kg,-0.1%
same,"Weight of liver, mean ± S.E.",mice (liver); [7],6.66 ± 0.22 g/100 g of body weight
same,Percentage change of weight of liver,mice (liver); [7],+4.9%
same,"Weight of liver, mean ± S.E.",mice (liver); [16],7.11 ± 0.13 g/100 g of body weight
same,Percentage change of weight of liver,mice (liver); [9],+12.0%
same,"Weight of liver, mean ± S.E.",mice (liver); [17],7.03 ± 0.09 g/100 g of body weight
same,Percentage change of weight of liver,mice (liver); [11],+10.7%
same,"Plasma cholesterol level, mean ± S.E.",[4]; [15],386.2 ± 10.5 mg/dL
same,Percentage change of plasma cholesterol,[4]; dose per once 100 mg/kg,-13.4%
"CCOC(=O)C(C)(C)Oc1ccc(Cl)cc1 [clofibrate, ethyl p-chlorophenoxyisobutyrate]",side effect,cholesterol,hepatic toxicity
